Legend:
[1] = target: PIK3CD (Human) (UniProt O00329); experiment: Assessment of PIK3CD Kinase Activity
[2] = target: PIK3CG (human) (UniProt P48736); experiment: Assessment of PIK3CG Kinase Activity
[3] = target: PIK3CA (human) (UniProt P42336); experiment: Assessment of PIK3CA Kinase Activity
[4] = target: PIK3CB (Human) (UniProt P42338); experiment: Assessment of PIK3CB Kinase Activity
PIK3CB (Human), sequence (P42338 whole entry, looked up): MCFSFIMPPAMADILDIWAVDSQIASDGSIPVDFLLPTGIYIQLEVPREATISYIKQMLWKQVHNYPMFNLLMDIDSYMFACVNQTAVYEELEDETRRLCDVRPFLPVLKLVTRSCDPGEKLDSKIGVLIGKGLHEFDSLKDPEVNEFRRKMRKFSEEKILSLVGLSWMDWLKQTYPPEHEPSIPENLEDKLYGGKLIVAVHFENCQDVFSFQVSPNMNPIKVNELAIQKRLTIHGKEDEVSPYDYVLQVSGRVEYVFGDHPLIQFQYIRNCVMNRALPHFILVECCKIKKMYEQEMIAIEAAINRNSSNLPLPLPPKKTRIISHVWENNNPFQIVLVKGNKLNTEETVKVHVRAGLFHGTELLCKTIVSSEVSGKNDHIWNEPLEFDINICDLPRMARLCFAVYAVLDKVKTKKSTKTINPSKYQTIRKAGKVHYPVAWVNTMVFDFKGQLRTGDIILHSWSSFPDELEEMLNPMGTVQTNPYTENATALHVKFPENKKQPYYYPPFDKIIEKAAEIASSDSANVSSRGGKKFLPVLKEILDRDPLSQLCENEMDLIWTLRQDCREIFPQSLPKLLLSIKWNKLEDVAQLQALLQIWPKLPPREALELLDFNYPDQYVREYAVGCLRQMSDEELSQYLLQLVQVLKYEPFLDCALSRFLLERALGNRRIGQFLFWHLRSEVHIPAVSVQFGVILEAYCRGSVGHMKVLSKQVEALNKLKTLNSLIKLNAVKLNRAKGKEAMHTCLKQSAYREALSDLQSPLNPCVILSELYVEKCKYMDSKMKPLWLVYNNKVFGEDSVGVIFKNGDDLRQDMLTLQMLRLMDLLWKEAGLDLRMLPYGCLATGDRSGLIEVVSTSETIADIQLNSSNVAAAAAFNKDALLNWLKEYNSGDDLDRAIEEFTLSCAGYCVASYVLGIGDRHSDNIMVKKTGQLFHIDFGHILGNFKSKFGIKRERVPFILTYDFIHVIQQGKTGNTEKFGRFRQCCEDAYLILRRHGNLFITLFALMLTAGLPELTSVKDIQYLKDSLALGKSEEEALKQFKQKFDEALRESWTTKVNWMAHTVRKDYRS

PIK3CD (Human), sequence (O00329 whole entry, looked up): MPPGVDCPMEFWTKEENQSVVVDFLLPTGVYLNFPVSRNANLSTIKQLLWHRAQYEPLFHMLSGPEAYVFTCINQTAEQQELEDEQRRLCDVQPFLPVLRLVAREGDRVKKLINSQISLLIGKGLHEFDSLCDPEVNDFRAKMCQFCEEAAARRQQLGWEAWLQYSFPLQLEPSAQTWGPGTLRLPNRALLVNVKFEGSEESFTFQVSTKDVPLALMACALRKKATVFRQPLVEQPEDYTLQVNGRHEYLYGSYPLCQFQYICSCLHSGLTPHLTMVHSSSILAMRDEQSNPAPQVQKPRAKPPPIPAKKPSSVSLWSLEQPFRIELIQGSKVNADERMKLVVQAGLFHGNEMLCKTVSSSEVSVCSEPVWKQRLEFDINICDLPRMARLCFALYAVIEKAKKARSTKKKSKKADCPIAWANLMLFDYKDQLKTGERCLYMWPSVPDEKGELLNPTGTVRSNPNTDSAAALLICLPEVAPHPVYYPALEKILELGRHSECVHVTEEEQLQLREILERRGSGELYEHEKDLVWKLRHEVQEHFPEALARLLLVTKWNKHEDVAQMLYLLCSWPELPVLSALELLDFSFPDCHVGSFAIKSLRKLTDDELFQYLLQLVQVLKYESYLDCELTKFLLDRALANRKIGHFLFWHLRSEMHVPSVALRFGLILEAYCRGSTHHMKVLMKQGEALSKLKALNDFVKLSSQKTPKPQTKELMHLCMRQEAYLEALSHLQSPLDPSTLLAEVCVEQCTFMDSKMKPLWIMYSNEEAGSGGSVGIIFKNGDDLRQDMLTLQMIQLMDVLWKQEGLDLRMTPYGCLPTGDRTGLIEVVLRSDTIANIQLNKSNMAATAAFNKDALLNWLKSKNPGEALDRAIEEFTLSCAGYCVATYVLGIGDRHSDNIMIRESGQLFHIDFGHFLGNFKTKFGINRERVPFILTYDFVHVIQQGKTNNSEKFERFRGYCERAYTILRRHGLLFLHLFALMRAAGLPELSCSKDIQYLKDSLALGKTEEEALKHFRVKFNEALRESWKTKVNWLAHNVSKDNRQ
PIK3CA (human), sequence (P42336 whole entry, looked up): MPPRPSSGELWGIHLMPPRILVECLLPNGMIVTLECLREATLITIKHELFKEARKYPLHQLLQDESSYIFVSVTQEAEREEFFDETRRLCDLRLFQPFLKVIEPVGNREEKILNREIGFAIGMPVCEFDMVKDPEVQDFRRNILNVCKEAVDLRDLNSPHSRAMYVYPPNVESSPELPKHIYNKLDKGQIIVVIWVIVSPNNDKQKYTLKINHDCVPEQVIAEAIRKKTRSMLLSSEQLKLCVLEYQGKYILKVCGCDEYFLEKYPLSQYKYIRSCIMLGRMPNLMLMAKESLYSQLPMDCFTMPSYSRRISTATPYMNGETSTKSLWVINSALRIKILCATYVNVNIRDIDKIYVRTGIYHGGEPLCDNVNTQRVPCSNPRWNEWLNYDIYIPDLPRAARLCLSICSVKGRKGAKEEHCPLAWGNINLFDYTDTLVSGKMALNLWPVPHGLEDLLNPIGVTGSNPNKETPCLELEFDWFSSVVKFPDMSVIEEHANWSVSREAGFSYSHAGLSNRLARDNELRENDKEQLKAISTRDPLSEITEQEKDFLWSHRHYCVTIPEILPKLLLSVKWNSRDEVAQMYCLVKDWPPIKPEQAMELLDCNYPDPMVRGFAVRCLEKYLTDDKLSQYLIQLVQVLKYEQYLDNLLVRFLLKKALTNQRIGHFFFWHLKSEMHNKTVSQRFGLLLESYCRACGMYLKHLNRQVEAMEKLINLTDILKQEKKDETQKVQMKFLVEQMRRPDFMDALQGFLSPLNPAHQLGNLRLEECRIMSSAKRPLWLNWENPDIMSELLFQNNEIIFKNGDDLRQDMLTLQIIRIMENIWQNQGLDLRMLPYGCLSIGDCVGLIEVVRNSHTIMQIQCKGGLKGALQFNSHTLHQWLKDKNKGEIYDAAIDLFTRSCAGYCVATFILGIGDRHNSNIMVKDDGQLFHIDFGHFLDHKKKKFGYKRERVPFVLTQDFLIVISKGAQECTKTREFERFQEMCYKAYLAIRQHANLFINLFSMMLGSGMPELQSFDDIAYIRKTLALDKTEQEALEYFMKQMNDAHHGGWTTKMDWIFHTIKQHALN
PIK3CG (human), sequence (P48736 whole entry, looked up): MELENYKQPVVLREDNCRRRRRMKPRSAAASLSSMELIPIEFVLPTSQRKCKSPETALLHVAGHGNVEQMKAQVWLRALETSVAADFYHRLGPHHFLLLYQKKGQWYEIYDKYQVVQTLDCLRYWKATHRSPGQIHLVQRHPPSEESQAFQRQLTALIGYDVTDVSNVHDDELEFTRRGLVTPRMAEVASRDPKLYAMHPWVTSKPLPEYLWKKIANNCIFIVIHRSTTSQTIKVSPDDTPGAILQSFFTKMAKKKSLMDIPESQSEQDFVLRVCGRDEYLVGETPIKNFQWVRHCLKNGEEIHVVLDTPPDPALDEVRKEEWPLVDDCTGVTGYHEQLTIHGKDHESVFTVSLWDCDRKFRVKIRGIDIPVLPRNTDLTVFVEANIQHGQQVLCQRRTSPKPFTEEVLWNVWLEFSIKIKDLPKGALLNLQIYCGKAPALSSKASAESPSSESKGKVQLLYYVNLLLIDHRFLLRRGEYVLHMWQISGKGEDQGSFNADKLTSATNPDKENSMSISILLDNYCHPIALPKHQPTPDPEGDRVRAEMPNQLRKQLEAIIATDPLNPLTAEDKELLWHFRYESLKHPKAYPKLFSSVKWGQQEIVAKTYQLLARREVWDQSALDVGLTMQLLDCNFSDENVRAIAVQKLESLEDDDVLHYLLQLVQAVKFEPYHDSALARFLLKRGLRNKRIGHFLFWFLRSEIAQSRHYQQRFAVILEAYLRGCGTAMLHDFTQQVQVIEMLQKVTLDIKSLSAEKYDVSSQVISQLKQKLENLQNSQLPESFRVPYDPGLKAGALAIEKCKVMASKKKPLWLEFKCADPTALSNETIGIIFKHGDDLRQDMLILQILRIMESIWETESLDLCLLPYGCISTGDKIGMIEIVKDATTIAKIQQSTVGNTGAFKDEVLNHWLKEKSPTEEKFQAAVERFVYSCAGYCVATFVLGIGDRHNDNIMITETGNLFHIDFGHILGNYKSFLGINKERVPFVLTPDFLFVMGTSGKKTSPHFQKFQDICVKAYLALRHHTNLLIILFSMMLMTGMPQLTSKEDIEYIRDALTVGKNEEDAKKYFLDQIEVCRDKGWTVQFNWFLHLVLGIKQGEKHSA

SMILES | IC50 [1] [nM] | IC50 [2] [nM] | IC50 [3] [nM] | IC50 [4] [nM]
CNc1nc(N[C@@H](C)c2cc3cccc(-c4cnc(C)nc4)c3c(=O)n2-c2ccccc2)c2ncccc2n1 | 100 to 1000 | 100 to 1000 | > 10000 | > 10000
COc1ncc(-c2cccc3cc([C@H](C)Nc4ccnc5ccnn45)n(-c4ccccc4)c(=O)c23)cn1 | < 100 | 100 to 1000 | > 10000 | > 10000
COc1nc(N[C@@H](C)c2cc3cccc(Cl)c3c(=O)n2-c2ccccc2)c2ncccc2n1 | > 10000 | > 10000 | > 10000 | > 10000
C[C@H](Nc1nc(Cl)ns1)c1cc2cccc(Cl)c2c(=O)n1-c1ccccc1 | > 10000 | > 10000 | > 10000 | > 10000
CCOC(=O)c1cnc(N[C@@H](C)c2cc3cccc(-c4ccnc(OC)c4)c3c(=O)n2-c2ccccc2)nc1N | > 10000 | > 10000 | > 10000 | > 10000
C[C@H](NCc1cccnc1N)c1cc2cccc(Cl)c2c(=O)n1-c1ccccc1 | > 10000 | > 10000 | > 10000 | > 10000
C[C@H](Nc1ccn2nccc2n1)c1cc2cccc(Cl)c2c(=O)n1-c1ccccc1 | > 10000 | > 10000 | > 10000 | > 10000
C[C@H](Nc1ncnc2cc(F)ccc12)c1cc2cccc(Cl)c2c(=O)n1-c1ccccc1 | > 10000 | > 10000 | > 10000 | > 10000
C[C@H](Nc1ncnc2cccnc12)c1cc2cccc(C(=O)O)c2c(=O)n1-c1ccccc1 | > 10000 | 100 to 1000 | > 10000 | > 10000
C[C@H](Nc1nccc2nccn12)c1cc2cccc(Cl)c2c(=O)n1-c1ccccc1 | > 10000 | > 10000 | > 10000 | > 10000
C[C@H](Nc1nc(N)nc2cccnc12)c1cc2cccc(Cl)c2c(=O)n1-c1ccccc1 | < 100 | < 100 | 100 to 1000 | < 100
C[C@H](Nc1nc(Cl)nc2cccnc12)c1cc2cccc(-c3cnn(C)c3)c2c(=O)n1-c1cccc(F)c1 | 100 to 1000 | 100 to 1000 | > 10000 | > 10000
C[C@H](Nc1nc(N)nc2[nH]cnc12)c1cc2cccc(C(F)(F)F)c2c(=O)n1-c1ccccc1 | < 100 | < 100 | 100 to 1000 | < 100
C[C@H](Nc1ncc(C(F)(F)F)c(N)n1)c1cc2cccc(Cl)c2c(CCN2CCOCC2)n1 | > 10000 | > 10000 | > 10000 | > 10000
Cc1ncc(-c2cccc3cc([C@H](C)Nc4nc(N)nc5cccnc45)n(-c4ccccc4)c(=O)c23)cn1 | < 100 | < 100 | > 10000 | > 10000
C[C@H](Nc1nc(Cl)nc2cccnc12)c1cc2cccc(-c3cnn(C)c3)c2c(=O)n1-c1ccccc1 | 100 to 1000 | < 100 | > 10000 | > 10000
C[C@H](Nc1nc(N)nc2cccnc12)c1cc2cccc(-c3cnc4[nH]ccc4c3)c2c(=O)n1-c1ccccc1 | < 100 | < 100 | 100 to 1000 | 100 to 1000
C[C@H](Nc1nc(N)nc2cccnc12)c1cc2cccc(Cl)c2c(=O)n1-c1ccc(F)cc1 | < 100 | < 100 | 100 to 1000 | < 100
C[C@H](Nc1ncnc2[nH]cc(C#N)c12)c1cc2cccc(C(F)(F)F)c2c(=O)n1-c1ccccc1 | < 100 | < 100 | > 10000 | 100 to 1000
C[C@H](Nc1ccnc2ccnn12)c1cc2scc(-c3cnn(C)c3)c2c(=O)n1-c1ccccc1 | 100 to 1000 | 100 to 1000 | > 10000 | > 10000
COc1ncc(-c2cccc3cc([C@H](C)Nc4nc(N)nc5cccnc45)n(-c4cccc(F)c4)c(=O)c23)cn1 | < 100 | < 100 | > 10000 | > 10000
C[C@H](Nc1ncnc(N)c1C#N)c1cc2cccc(C(F)(F)F)c2c(=O)n1-c1ccccc1 | < 100 | < 100 | > 10000 | > 10000
C[C@H](Nc1ncnc2cccnc12)c1cc2cccc(Cl)c2c(=O)n1-c1cccc(F)c1 | < 100 | < 100 | 100 to 1000 | 100 to 1000
CNc1cccc2cc([C@H](C)Nc3nc(N)nc4cccnc34)n(-c3ccccc3)c(=O)c12 | 100 to 1000 | < 100 | > 10000 | > 10000
C[C@H](Nc1nc(O)nc2cccnc12)c1cc2cccc(C(F)(F)F)c2c(=O)n1-c1cccc(F)c1 | > 10000 | > 10000 | > 10000 | > 10000
C[C@@H](c1cc2cccc(Cl)c2c(=O)n1-c1ccccc1)n1c(=O)[nH]c2cnc(N)nc21 | > 10000 | > 10000 | > 10000 | > 10000
C[C@H](Nc1nc(N)nc2cccnc12)c1nc2cccc(Cl)c2c(=O)n1-c1ccccc1 | < 100 | < 100 | 100 to 1000 | 100 to 1000

SMILES | IC50 [1] [nM] | IC50 [2] [nM] | IC50 [3] [nM] | IC50 [4] [nM]
COc1ncc(-c2cccc3cc([C@H](C)Nc4nc(N)nc5cccnc45)n(-c4ccccc4)c(=O)c23)cn1 | < 100 | < 100 | > 10000 | > 10000
C[C@H](Nc1ncnc2cccnc12)c1cc2cccc(Cl)c2c(=O)n1C1CC1 | < 100 | < 100 | 100 to 1000 | < 100
CNc1nc(N[C@@H](C)c2cc3cccc(-c4cnc(OC)nc4)c3c(=O)n2-c2ccccc2)c2ncccc2n1 | < 100 | 100 to 1000 | > 10000 | > 10000
C[C@H](Nc1cc(Cl)nn2ccnc12)c1cc2cccc(-c3cnn(C)c3)c2c(=O)n1-c1cccc(F)c1 | 100 to 1000 | 100 to 1000 | > 10000 | > 10000
COc1ncc(-c2cccc3cc([C@H](C)Nc4nc(O)nc5cccnc45)n(-c4ccccc4)c(=O)c23)cn1 | > 10000 | > 10000 | > 10000 | > 10000
C[C@H](Nc1cc(Cl)ncc1C(N)=O)c1cc2cccc(Cl)c2c(=O)n1-c1ccccc1 | 100 to 1000 | 100 to 1000 | > 10000 | > 10000
COc1ncc(-c2cccc3cc([C@H](C)Nc4nc(OC)nc5cccnc45)n(-c4ccccc4)c(=O)c23)cn1 | > 10000 | > 10000 | > 10000 | > 10000
C[C@H](Nc1ncnc2cccnc12)c1cc2ccc(F)c(Cl)c2c(=O)n1-c1ccccc1 | < 100 | < 100 | 100 to 1000 | 100 to 1000
C[C@H](Nc1ncnc2cnccc12)c1cc2cccc(Cl)c2c(=O)n1-c1ccccc1 | > 10000 | > 10000 | > 10000 | > 10000
COc1cncc(-c2cccc3cc([C@H](C)Nc4ncnc5cccnc45)n(-c4ccccc4)c(=O)c23)c1 | < 100 | < 100 | 100 to 1000 | > 10000
C[C@H](Nc1ncnn2cncc12)c1cc2cccc(C(F)(F)F)c2c(=O)n1-c1ccccc1 | – | > 10000 | > 10000 | > 10000
COc1ncc(-c2cccc3cc([C@H](C)Nc4cc(N)nc5ccnn45)n(-c4ccccc4)c(=O)c23)cn1 | < 100 | 100 to 1000 | > 10000 | > 10000
C[C@H](Nc1ncnc2scnc12)c1cc2cccc(C(F)(F)F)c2c(=O)n1-c1ccccc1 | < 100 | < 100 | 100 to 1000 | < 100
CNc1nc(N[C@@H](C)c2cc3cccc(NC)c3c(=O)n2-c2ccccc2)c2ncccc2n1 | 100 to 1000 | < 100 | > 10000 | > 10000
COc1ncc(-c2cccc3cc([C@H](C)Nc4ncnc5cccnc45)n(-c4ccccc4)c(=O)c23)cn1 | < 100 | < 100 | > 10000 | > 10000
C[C@H](Nc1nc(N)nc2cccnc12)c1cc2cccc(N(C)C)c2c(=O)n1-c1ccccc1 | – | 100 to 1000 | > 10000 | > 10000
C[C@H](Nc1ncc2[nH]cnc2n1)c1cc2cccc(Cl)c2c(=O)n1-c1ccccc1 | – | > 10000 | > 10000 | > 10000
C[C@H](Nc1nc(Cl)nc2cccnc12)c1cc2cccc(-c3cnn(C)c3)c2c(=O)n1C1CC1 | 100 to 1000 | 100 to 1000 | > 10000 | > 10000
C[C@H](Nc1ncnn2cncc12)c1cc2cccc(Cl)c2c(=O)n1-c1cccc(F)c1 | – | > 10000 | > 10000 | > 10000
C[C@H](Nc1cc(N)ncc1C(N)=O)c1cc2cccc(Cl)c2c(=O)n1-c1ccccc1 | < 100 | < 100 | 100 to 1000 | < 100
Cc1ncc(-c2cccc3cc([C@H](C)Nc4ncnc5cccnc45)n(-c4ccccc4)c(=O)c23)cn1 | < 100 | < 100 | > 10000 | > 10000
C[C@H](Nc1ccnn2ccnc12)c1cc2cccc(Cl)c2c(=O)n1-c1ccccc1 | < 100 | < 100 | 100 to 1000 | < 100
C[C@H](Nc1nc(O)nc2[nH]cnc12)c1cc2cccc(C(F)(F)F)c2c(=O)n1-c1cccc(F)c1 | > 10000 | > 10000 | > 10000 | > 10000
COc1ncc(-c2cccc3cc([C@H](C)Nc4cc(O)nc5cccnc45)n(-c4ccccc4)c(=O)c23)cn1 | – | > 10000 | > 10000 | > 10000
C[C@H](Nc1ncnc2cccnc12)c1cc2cccc(Cl)c2c(=O)n1CCN1CCCC1 | < 100 | 100 to 1000 | > 10000 | 100 to 1000
C[C@H](NCc1cnc2cccnn12)c1cc2cccc(Cl)c2c(=O)n1-c1ccccc1 | – | > 10000 | > 10000 | > 10000
